Source: patent US12398185B2, “Peptoid blocking O-GlcNAcylated NF-kappaB c-Rel” (Case Western Reserve University, priority 2019, dated 2025)
Non-standard residues stand in square brackets, D forms with d. Residues, ends and D or L forms follow the SMILES beside them. NFurfurylGly = O=C(O)CNCc1ccco1; Gly(N-CH2CH2OH) = O=C(O)CNCCO; Nphe = O=C(O)CNCc1ccccc1; NPrGly = CCCNCC(=O)O

Assays:
B cells (BJAB) = test: Non-specific activity in B cells; type: cell-based
Method: (§1) Compound 2 was further studied in B cells (BJAB) and macrophages (RAW 264.7). BJAB cells were grown in RPMI medium and RAW 264.7 cells were grown in DMEM medium supplemented with 100 U/mL penicillin/streptomycin, 4 mM L-glutamine and 10% fetal bovine serum.

O-GlcNAcylated c-Rel [1] = target: T1, O-GlcNAcylated c-Rel (Homo sapiens, UniProt Q04864); test: TCR-induced O-GlcNAcylated-c-Rel-dependent gene expression in primary CD4+ T cells; type: cell-based; details: 100 μM
T1 construct: endogenous in cells; host or cells: primary CD4+ T cells from human PBMC
T1 sequence (Q04864 2-587 isoform Q04864-2): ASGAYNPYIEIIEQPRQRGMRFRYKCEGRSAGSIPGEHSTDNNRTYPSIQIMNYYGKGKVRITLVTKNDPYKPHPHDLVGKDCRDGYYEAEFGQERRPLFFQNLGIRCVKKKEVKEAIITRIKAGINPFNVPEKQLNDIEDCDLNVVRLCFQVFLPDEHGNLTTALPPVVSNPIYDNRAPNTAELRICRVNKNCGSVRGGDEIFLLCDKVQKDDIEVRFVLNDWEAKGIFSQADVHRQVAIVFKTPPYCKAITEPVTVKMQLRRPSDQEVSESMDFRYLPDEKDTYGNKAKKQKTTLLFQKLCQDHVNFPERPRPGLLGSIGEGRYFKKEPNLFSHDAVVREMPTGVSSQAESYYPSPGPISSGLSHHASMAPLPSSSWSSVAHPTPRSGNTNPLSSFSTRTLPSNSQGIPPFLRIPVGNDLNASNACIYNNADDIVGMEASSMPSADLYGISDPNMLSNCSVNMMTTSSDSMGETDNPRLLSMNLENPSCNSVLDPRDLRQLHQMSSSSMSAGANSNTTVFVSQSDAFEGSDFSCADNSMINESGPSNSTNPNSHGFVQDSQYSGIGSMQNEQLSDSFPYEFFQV
Method: The effect of Compound 2 was studied in primary CD4^+ T cells isolated from human peripheral blood mononuclear cells. CD4+ T cells were […] were isolated by magnetic sorting (Miltenyi Biotec) and cultured in supplemented RPMI medium. Cells were treated with 100 μM of Compound 2 twice—at the start of the experiment and at 24 hrs.

[2] = test system: human primary CD4+ T cells; test: Toxicity, cell death by propidium iodide staining and flow cytometry, primary CD4+ T cells; type: cell-based
Method: (§2) The toxicity of Compound 2 was studied at 100 μM and 200 μM concentrations in Jurket cells (FIG. 5, left), BJAB B cells (FIG. 5, middle left), human primary CD4^+ T cells (FIG. 5, middle right), and human primary monocytes (FIG. 5, right). Cell death was assessed by propidium iodide staining and flow cytometry. […] Treatment with cycloheximide (CHX) (Sigma Aldrich), a generic inhibitor of translation, was used as a positive control for cell death induction.

macrophages (RAW 264.7) = test: Non-specific activity in macrophages; type: cell-based; details: RAW 264.7 cells
Method: as §1

Jurket cells = test: Toxicity, cell death by propidium iodide staining and flow cytometry, Jurkat; type: cell-based
Method: as §2

O-GlcNAcylated c-Rel [3] = target: T2, O-GlcNAcylated c-Rel (Homo sapiens, UniProt Q04864); test: TCR-induced O-GlcNAcylation-dependent GMCSF and IL-2 expression in Jurkat T cells; type: cell-based; details: for expression of GMCSF / expression of IL-2: Compound 2 100 μM and 200 μM, 16 hours, FIG. 3
T2 construct: endogenous in cells; host or cells: Jurkat T cells
T2 sequence (Q04864 1-619): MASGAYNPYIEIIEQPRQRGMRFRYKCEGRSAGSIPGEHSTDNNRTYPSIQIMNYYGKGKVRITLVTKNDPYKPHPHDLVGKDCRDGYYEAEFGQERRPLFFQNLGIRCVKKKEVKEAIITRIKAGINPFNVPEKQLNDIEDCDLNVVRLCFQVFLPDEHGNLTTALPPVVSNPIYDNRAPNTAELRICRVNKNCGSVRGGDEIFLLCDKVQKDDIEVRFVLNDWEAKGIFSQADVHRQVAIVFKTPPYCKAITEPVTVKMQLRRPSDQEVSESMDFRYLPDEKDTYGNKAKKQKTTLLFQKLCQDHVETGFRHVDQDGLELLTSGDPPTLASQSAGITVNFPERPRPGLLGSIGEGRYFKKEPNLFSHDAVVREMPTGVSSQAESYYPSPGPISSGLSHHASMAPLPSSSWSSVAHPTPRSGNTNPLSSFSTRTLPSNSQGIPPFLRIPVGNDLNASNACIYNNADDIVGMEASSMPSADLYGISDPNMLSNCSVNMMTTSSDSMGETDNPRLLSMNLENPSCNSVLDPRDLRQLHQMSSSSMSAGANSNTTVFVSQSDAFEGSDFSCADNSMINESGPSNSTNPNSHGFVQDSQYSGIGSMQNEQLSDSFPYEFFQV
Method: It is further known that a mutation of c-Rel at S350 completely abrogates T cell receptor (TCR)-induced O-GlcNAcylation-dependent expression of GMCSF and IL-2 (Ramakrishnan, 2013). Thus, the specific inhibition of c-Rel O-GlcNAcylation by Compound 2 was studied. Jurkat cells were grown in RPMI medium at 1×10^6 cells/2 mL. The cells were treated with compound 2 (100 μM and 200 μM) for 16 hours. Cell death was assessed by propidium iodide (Biolegend) staining and flow cytometry. Following treatment with Compound 2, the resulting expression of GMCSF and IL-2 was measured. […] Further, treatment with Compound 2 specifically affected only the O-GlcNAcylation-dependent enhancement of IL-2 and GMCSF expression.
The range of concentrations at which Compound 2 is effective in suppression O-GlcNAcylation c-Rel function was studied. Jurket cells were exposed to Compound 2 in concentrations of 2 mM, 500 μM, 200 μM, 100 μM, 50 μM and 10 μM peptoid on TCR-induced GMCSF expression.
The effect of the scrambled peptoid, Compound 3, was also studied (FIG. 3, bottom right panel).

Leukemia K562 cells = test: Cell death in leukemia K562 cells; type: cell-based; details: Compound 2 at 100 μM; compared with OSMI1 at 50 μM; FIG. 8
Method: The effect of Compound 2 on […] cells was studied. Leukemia K562 cells were treated with HBP inhibitor OSMI1 (50 μM) or Compound 2 (100 μM). Scrambled peptoid Compound 3 was used as a control.

c-Rel = target: T3, c-Rel (Homo sapiens, UniProt Q04864); test: Nuclear translocation of c-Rel, Western blot of cytoplasmic and nuclear extracts; type: cell-based; details: FIG. 6 top
T3 construct: endogenous in cells
T3 sequence (Q04864 1-619): T2 sequence (Q04864 1-619)
Method: Activation of c-Rel involves signal-induced translocation of c-Rel from the cytoplasm to the nucleus and its subsequent DNA binding and gene expression. Thus, the effect of treatment with Compound 2 and Compound 3 (comparative) on nuclear translocation of c-Rel were examined. Cytoplasmic and nuclear extracts were prepared and Western blotting was performed as described in DeJesus, T. J. and Ramakrishnan, P. “NF-kappaB c-Rel Dictates the Inflammatory Threshold by Acting as a Transcriptional Repressor.” iScience 23, 100876 (2020).

O-GlcNAcylated c-Rel [4] = target: T2, O-GlcNAcylated c-Rel; test: Oligonucleotide pull down assay, c-Rel binding to CD28RE DNA; details: Jurket cells, anti-CD3/CD28 and Thiamet-G; Compound 2 at 50 μM
Method: Oligonucleotide pull down assays were performed to examine whether Compound 2 binds to O-GlcNAcylated c-Rel and thus, competitively prevents its binding to CD28RE. Jurket cells were treated with anti-CD3/CD28 antibodies to trigger TCR activation and c-Rel nuclear translocation. Cells were contacted with Thiamet-G (an O-GlcNAse inhibitor) (Sigma Aldrich) to enhance cellular O-GlcNAcylation.

human primary monocytes = test: Toxicity, cell death by propidium iodide staining and flow cytometry, primary monocytes; type: cell-based; details: 100 μM and 200 μM, 40 hours post-treatment
Method: as §2

BJAB B cells = test: Toxicity, cell death by propidium iodide staining and flow cytometry, BJAB; type: cell-based
Method: as §2

[5] = human primary T-cells, treated twice (start and 24 hrs)

SMILES: CCCNCC(=O)N(CC(=O)N(CC(=O)N(CCO)CC(N)=O)Cc1ccccc1)Cc1ccco1 [Compound 2] (H-[NPrGly][NFurfurylGly][Nphe][Gly(N-CH2CH2OH)]-NH2)
- non-specific activity (B cells (BJAB)): does not exhibit any non-specific activity
- TCR-induced O-GlcNAcylation-dependent increase in expression of GMCSF (O-GlcNAcylated c-Rel [1]; [5]): effectively and significantly decreased
- TCR-induced O-GlcNAcylation-dependent increase in expression of IL-2 (O-GlcNAcylated c-Rel [1]; [5]): effectively and significantly decreased
- TCR-induced expression level of GMCSF, IL-2 and other NF-kappaB-induced genes such as A20 and I-kappa-B-alpha (O-GlcNAcylated c-Rel [1]; primary T cells): did not block
- cell death ([2]; human primary CD4+ T cells, 100 μM and 200 μM, 40 hours post-treatment): non-significant cell death
- non-specific activity (macrophages (RAW 264.7)): does not exhibit any non-specific activity
- cell death (Jurket cells; Jurket cells, 100 μM and 200 μM, 40 hours post-treatment): non-significant cell death
- TCR-induced expression levels of IL-2 and GMCSF (not O-GlcNAcylation-dependent) (O-GlcNAcylated c-Rel [3]): did not block
- O-GlcNAcylation-dependent GMCSF expression (O-GlcNAcylated c-Rel [3]; 200 μM): near complete suppression
- GMCSF expression levels at higher concentrations (O-GlcNAcylated c-Rel [3]; 500 μM and 2 mM): did not further decrease
- expression of GMCSF (O-GlcNAcylated c-Rel [3]): significantly decreased
- expression of IL-2 (O-GlcNAcylated c-Rel [3]): significantly decreased
- K562 cell death (Leukemia K562 cells): nearly comparable to that caused by known OGT inhibitor OSMI1
- change in nuclear c-Rel levels (c-Rel): no significant change
- binding of c-Rel to CD28RE DNA (O-GlcNAcylated c-Rel [4]): reduced the binding of c-Rel
- cell death (human primary monocytes): non-significant cell death
- cell death (BJAB B cells; 100 μM and 200 μM, 40 hours post-treatment): non-significant cell death

SMILES: COc1ccccc1[C@@H](NS(=O)(=O)c1ccc2[nH]c(=O)ccc2c1)C(=O)N(Cc1ccco1)Cc1cccs1 [OSMI1, reference compound]
- expression of GMCSF (O-GlcNAcylated c-Rel [3]): well below the TCR-induced levels
- expression of IL-2 (O-GlcNAcylated c-Rel [3]): well below the TCR-induced levels

SMILES: C[C@@H]1C[C@@H]([C@H](O)CC2CC(=O)NC(=O)C2)C(=O)[C@@H](C)C1 [CHX, cycloheximide, reference compound]
- cell death, positive control ([2]; human primary T cells, 5 μg/mL, 16 hours post-treatment): significant cell death
- cell death, positive control (Jurket cells; Jurkat cells, 5 μg/mL, 16 hours post-treatment): significant cell death
- cell death, positive control (BJAB B cells; 5 μg/mL, 16 hours post-treatment): significant cell death

SMILES: CCCN(CC(=O)N(CC(N)=O)Cc1ccccc1)C(=O)CN(CCO)C(=O)CNCc1ccco1 [Compound 3] (H-[NFurfurylGly][Gly(N-CH2CH2OH)][NPrGly][Nphe]-NH2)
- inhibitory effect on GMCSF expression, scrambled peptoid control (O-GlcNAcylated c-Rel [3]; FIG. 3 bottom right): no inhibitory effect
- K562 cell death (Leukemia K562 cells): no significant cell death
- change in nuclear c-Rel levels (c-Rel): no significant change
- binding of c-Rel to CD28RE DNA (O-GlcNAcylated c-Rel [4]): did not block the binding of c-Rel
